Assay results: ChEMBL document CHEMBL1154364, “2-Benzimidazolyl-9-(chroman-4-yl)-purinone derivatives as JAK3 inhibitors” (Bioorg Med Chem Lett, 2009)

Target: Tyrosine-protein kinase JAK2 (Homo sapiens, UniProt O60674)
Sequence (O60674 whole entry): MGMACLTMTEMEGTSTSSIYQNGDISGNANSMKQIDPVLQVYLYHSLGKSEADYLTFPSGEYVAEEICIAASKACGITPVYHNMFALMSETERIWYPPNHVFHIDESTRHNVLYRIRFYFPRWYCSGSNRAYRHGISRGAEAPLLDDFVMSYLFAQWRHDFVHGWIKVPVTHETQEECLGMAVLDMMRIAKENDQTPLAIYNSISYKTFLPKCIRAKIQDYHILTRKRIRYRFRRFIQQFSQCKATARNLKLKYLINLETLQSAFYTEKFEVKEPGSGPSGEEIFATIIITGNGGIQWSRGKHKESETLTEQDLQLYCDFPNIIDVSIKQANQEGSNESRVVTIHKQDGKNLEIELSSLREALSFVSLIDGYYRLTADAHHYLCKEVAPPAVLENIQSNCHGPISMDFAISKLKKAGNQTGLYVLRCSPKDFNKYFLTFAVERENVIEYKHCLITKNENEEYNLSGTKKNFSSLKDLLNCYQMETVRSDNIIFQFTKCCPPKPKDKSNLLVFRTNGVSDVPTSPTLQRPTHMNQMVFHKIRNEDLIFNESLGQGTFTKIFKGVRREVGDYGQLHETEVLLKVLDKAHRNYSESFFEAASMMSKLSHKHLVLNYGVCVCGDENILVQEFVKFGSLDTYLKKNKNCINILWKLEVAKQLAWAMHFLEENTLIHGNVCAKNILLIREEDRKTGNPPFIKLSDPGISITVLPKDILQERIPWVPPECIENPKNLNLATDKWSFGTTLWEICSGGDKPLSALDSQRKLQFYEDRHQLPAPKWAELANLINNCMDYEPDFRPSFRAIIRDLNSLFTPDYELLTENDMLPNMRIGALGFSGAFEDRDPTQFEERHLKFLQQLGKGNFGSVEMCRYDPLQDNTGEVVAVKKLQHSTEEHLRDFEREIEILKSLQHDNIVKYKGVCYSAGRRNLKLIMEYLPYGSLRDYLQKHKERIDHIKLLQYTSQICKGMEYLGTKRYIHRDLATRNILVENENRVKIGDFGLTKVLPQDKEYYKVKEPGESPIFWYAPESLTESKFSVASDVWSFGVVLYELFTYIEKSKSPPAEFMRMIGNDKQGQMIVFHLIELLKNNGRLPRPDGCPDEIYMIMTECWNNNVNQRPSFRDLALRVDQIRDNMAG
Description: Inhibition of human JAK2 (532-1132) by time resolved fluorescence assay

Row | SMILES | IC50
1 | N#Cc1ccc2ncn(-c3ncc4[nH]c(=O)n(Cc5c(F)cccc5F)c4n3)c2c1 | 28 nM
2 | N#Cc1ccc2ncn(-c3ncc4[nH]c(=O)n(Cc5c(Cl)cccc5Cl)c4n3)c2c1 | 1550 nM
3 | N#Cc1ccc2ncn(-c3ncc4[nH]c(=O)n([C@@H]5CCOc6c(F)cccc65)c4n3)c2c1 | 5 nM
4 | O=c1[nH]c2cnc(-n3cnc4ccc(Cl)cc43)nc2n1C1CCOCC1 | 393 nM
5 | N#Cc1ccc2ncn(-c3ncc4[nH]c(=O)n(C5CCOCC5)c4n3)c2c1 | 470 nM
6 | N#Cc1ccc2ncn(-c3ncc4[nH]c(=O)n(Cc5cccc(F)c5F)c4n3)c2c1 | 270 nM
7 | O=c1[nH]c2cnc(-n3cnc4ccc(F)cc43)nc2n1Cc1c(F)cccc1F | 320 nM
8 | O=c1[nH]c2cnc(-n3cnc4ccccc43)nc2n1[C@@H]1CCOc2c(F)cccc21 | 333 nM
9 | O=c1[nH]c2cnc(-n3cnc4ccccc43)nc2n1[C@H]1CCOc2c(F)cccc21 | 7000 nM
10 | O=c1[nH]c2cnc(-n3cnc4ccc(Cl)cc43)nc2n1[C@@H]1CCOc2c(F)cccc21 | 56 nM
11 | O=c1[nH]c2cnc(-n3cnc4ccc(F)cc43)nc2n1Cc1cccc(F)c1F | 1000 nM
12 | O=c1[nH]c2cnc(-n3cnc4cc(C(F)(F)F)ccc43)nc2n1C1CCOCC1 | 1800 nM
13 | O=c1[nH]c2cnc(-n3cnc4ccc(C(F)(F)F)cc43)nc2n1C1CCOCC1 | 560 nM
14 | O=c1[nH]c2cnc(-n3cnc4ccc(F)cc43)nc2n1C1CCOCC1 | 3400 nM
15 | O=c1[nH]c2cnc(-n3cnc4ccccc43)nc2n1C1CCOc2ccc(Cl)cc21 (racemic) | 500 nM
16 | O=c1[nH]c2cnc(-n3cnc4ccccc43)nc2n1C1CCOc2ccccc21 (racemic) | 170 nM
17 | O=c1[nH]c2cnc(-n3cnc4ccccc43)nc2n1C1CCOc2cccc(F)c21 (racemic) | 97 nM
18 | O=c1[nH]c2cnc(-n3cnc4ccccc43)nc2n1C1CCOc2cc(F)ccc21 (racemic) | 95 nM
19 | O=c1[nH]c2cnc(-n3cnc4ccccc43)nc2n1C1CCOc2c(F)cccc21 (racemic) | 285 nM
20 | O=c1[nH]c2cnc(-n3cnc4ccccc43)nc2n1C1CCOc2ccc(F)cc21 (racemic) | 83 nM
